According to the NIST ThermoML archive (doi:10.1021/je034087q):
± gives the expanded uncertainty stated by the source.

Experiment: xn = mol fraction of the nth substance listed
Settings: 323.15 K, Fluid (supercritical or subcritical phases)

CC(C)=O [acetone] + O=C=O
Settings | mass density [kg/m3]
9680 kPa, x2 = 0.952 | 588 ± 4
9710 kPa, x2 = 0.902 | 707 ± 4
9750 kPa, x2 = 0.933 | 656 ± 4
9750 kPa, x2 = 0.952 | 594 ± 4
9840 kPa, x2 = 0.948 | 625 ± 4
9850 kPa, x2 = 0.952 | 603 ± 4
9870 kPa, x2 = 0.902 | 711 ± 4
9900 kPa, x2 = 0.811 | 790 ± 5
9900 kPa, x2 = 0.882 | 743 ± 5
9900 kPa, x2 = 0.933 | 664 ± 4
9940 kPa, x2 = 0.952 | 611 ± 4
9960 kPa, x2 = 0.772 | 803 ± 5
10020 kPa, x2 = 0.902 | 715 ± 4
10030 kPa, x2 = 0.948 | 638 ± 4
10050 kPa, x2 = 0.933 | 669 ± 4
10100 kPa, x2 = 0.952 | 623 ± 4
10160 kPa, x2 = 0.902 | 719 ± 4
10220 kPa, x2 = 0.933 | 678 ± 4
10290 kPa, x2 = 0.882 | 748 ± 5
10290 kPa, x2 = 0.948 | 651 ± 4
10320 kPa, x2 = 0.952 | 636 ± 4
10360 kPa, x2 = 0.902 | 722 ± 5
10420 kPa, x2 = 0.933 | 684 ± 4
10440 kPa, x2 = 0.576 | 818 ± 5
10490 kPa, x2 = 0.811 | 796 ± 5
10540 kPa, x2 = 0.772 | 807 ± 5
10570 kPa, x2 = 0.902 | 727 ± 5
10590 kPa, x2 = 0.952 | 649 ± 4
10600 kPa, x2 = 0.948 | 666 ± 4
10630 kPa, x2 = 0.882 | 754 ± 5
10640 kPa, x2 = 0.933 | 693 ± 4
10780 kPa, x2 = 0.902 | 733 ± 5
10800 kPa, x2 = 0.186 | 785 ± 5
10880 kPa, x2 = 0.933 | 699 ± 4
10920 kPa, x2 = 0.952 | 663 ± 4
10950 kPa, x2 = 0.882 | 761 ± 5
10980 kPa, x2 = 0.948 | 679 ± 4
10990 kPa, x2 = 0.811 | 801 ± 5
11000 kPa, x2 = 0.902 | 736 ± 5
11060 kPa, x2 = 0.772 | 811 ± 5
11160 kPa, x2 = 0.933 | 707 ± 4
11260 kPa, x2 = 0.902 | 740 ± 5
11280 kPa, x2 = 0.952 | 678 ± 4
11440 kPa, x2 = 0.882 | 764 ± 5
11460 kPa, x2 = 0.933 | 714 ± 4
11480 kPa, x2 = 0.811 | 805 ± 5
11480 kPa, x2 = 0.948 | 696 ± 4
11500 kPa, x2 = 0.902 | 744 ± 5
11640 kPa, x2 = 0.383 | 806 ± 5
11760 kPa, x2 = 0.772 | 815 ± 5
11760 kPa, x2 = 0.902 | 751 ± 5
11780 kPa, x2 = 0.952 | 694 ± 4
11800 kPa, x2 = 0.933 | 724 ± 5
11870 kPa, x2 = 0.576 | 825 ± 5
11870 kPa, x2 = 0.882 | 769 ± 5
